Test results taken from patent US20060068444A1, “Compositions and methods for detecting cyclic analogs of hPTH” (Zelos Therapeutics, Inc, priority 2004, published 2006).
Positions of bridges follow the written chain, without caps; N, C: chain ends. No end group written: not given here.

Tests used:
[1] = system: antibodies which have binding specificity for cyclic analogs of hPTH (HRP-labeled anti-C-terminal antibody plus biotinylated anti-N-terminal antibody); assay: two-site sandwich ELISA for [Leu^27]cyclo(Glu^22-Lys^26)hPTH-(1-31); parameters: species or system rabbit; details: for detection in the two-site sandwich ELISA (cross-reaction), OD at 450 nm: peptides at 10,000, 1,000 and 100 pg/ml in BSA based buffer matrix, FIG. 3
Procedure: Streptavidin was weighed and diluted to 20 mg/L with phosphate buffer, 0.2 ml of this solution was added to each well of Corning® 96 Well Polystyrene Microplate. The plates were incubated at room temperature for 18-22 hours. The plates were then washed and a stabile/blocking buffer containing BSA was added. The plates were again incubated at room temperature for four hours. The plates were finally dried at <30% humidity. […] The peptide was diluted with a bovine serum albumin and normal bovine serum based buffer matrix to a final concentration of 1600 pg/ml, 400 pg/ml, 100 pg/ml, 25 pg/ml and 6 pg/ml. […] The above antigen and antibodies were incubated in the streptavidin coated well for 3 hours at room temperature with shaking at 170 rpm. After incubation, each well was washed with an ELISA wash buffer. 200 μL of tetra methyl benzidine (TMB) was then added into each well. The wells were incubated for 20 min at room temperature and then 100 μL of a stop solution was added into each well. The Microplates were read with a microtiter plate reader (VERSAmaxTM, Molecular Device, Inc.) at an absorption wavelength of 450 nm. A standard curve was obtained by plotting the optical density (OD) at 450 nm against the correspondent Ostabolin-C standard concentration. […] The OD at 450 nm values were read by a microtiter plate reader ([…], Molecular Device, Inc.) (FIG. 3).

adenylyl cyclase (AC) = details: cited from earlier work
ovariectomized rat model = details: cited from earlier work

Row | Substance | detection in the two-site sandwich ELISA (cross-reaction), OD at 450 nm [1] | standard curve, optical density (OD) at 450 nm against standard concentration ([1]; peptide standards 1600, 400, 100, 25 and 6 pg/ml, FIG. 2) | AC stimulating activity (adenylyl cyclase (AC)) | restoration of bone loss (ovariectomized rat model)
1 | hPTH-(1-84) | not able to detect |  |  | 
2 | hPTH-(1-31) | not able to detect |  |  | 
3 | hPTH-(1-34) | not able to detect |  |  | 
4 | [Leu^27]cyclo(Glu^22-Lys^26)hPTH-(1-31) (SVSEIQLMHNLGKHLNSMERVEWLRKLLQDV-NH2; lactam 22-26; N-terminus assumed; SMILES CC[C@H](C)[C@H](NC(=O)[C@H](CCC(=O)O)NC(=O)[C@H](CO)NC(=O)[C@@H](NC(=O)[C@@H](N)CO)C(C)C)C(=O)N[C@@H](CCC(N)=O)C(=O)N[C@@H](CC(C)C)C(=O)N[C@@H](CCSC)C(=O)N[C@@H](Cc1c[nH]cn1)C(=O)N[C@@H](CC(N)=O)C(=O)N[C@@H](CC(C)C)C(=O)NCC(=O)N[C@@H](CCCCN)C(=O)N[C@@H](Cc1c[nH]cn1)C(=O)N[C@@H](CC(C)C)C(=O)N[C@@H](CC(N)=O)C(=O)N[C@@H](CO)C(=O)N[C@@H](CCSC)C(=O)N[C@@H](CCC(=O)O)C(=O)N[C@@H](CCCNC(=N)N)C(=O)N[C@H](C(=O)N[C@H]1CCC(=O)NCCCC[C@@H](C(=O)N[C@@H](CC(C)C)C(=O)N[C@@H](CC(C)C)C(=O)N[C@@H](CCC(N)=O)C(=O)N[C@@H](CC(=O)O)C(=O)N[C@H](C(N)=O)C(C)C)NC(=O)[C@H](CCCNC(=N)N)NC(=O)[C@H](CC(C)C)NC(=O)[C@H](Cc2c[nH]c3ccccc23)NC1=O)C(C)C) [cyclic analog of hPTH, cyclized between Glu^22 and Lys^26] | dose responsive manner | dose responsive standard curve |  | 
5 | hPTH-(1-31)-NH2 |  |  | has only AC stimulating activity | fully active
